Data published in US20230295130A1, “COMPOUND USEFUL AS CDK7 KINASE INHIBITOR AND USE THEREOF” (TYK MEDICINES, INC., priority 2020, published 2023).
pIC50: −log10 of the molar value.

Assays:
[1] = test system: ovarian cancer cells OVCAR3; assay: Cell anti-proliferation experiment, MTT (Table 4); assay type: cell-based, human; settings: incubate 3 days
From the text: (§1) Human breast cancer cells MDA-MB 231, MDA-MB453, ovarian cancer cells OVCAR3, colorectal cancer cells HCT-116 and lung cancer cells NCI-H209 were purchased from BNCC. DMEM medium (Bio-Channel), DMSO (dimethyl sulfoxide), MTT (thiazole blue), 0.25% EDTA-Tripsin (pancreatin digestive juice), 1×PBS (phosphate buffer, PH7.2), 96-well plate (Corning), fetal bovine serum (FBS), 10,000 U/mL penicillin-G/streptomycin, high-speed freezing centrifuge (EPPENDORF 5810R), enzyme-linked immunosorbent assay (Tecan Spark).
(§2) • A) Tumor cells were cultured to 80-90% density in DMEM (high sugar, containing 10% FBS and 100 U/mL penicillin-G/streptomycin) at 37° C., 5% CO2 and saturated humidity. • B) The culture medium was removed from the 10 cm culture dish. • C) Cells were washed with 10 ml 1×PBS. • D) 4 ml of 0.25% EDTA-Tripsin was added to an incubator to digest pancreatin for 5 minutes at 37° C. and 5% CO2, transferred to a 15 ml centrifuge tube, centrifuged for 5 minutes at 200 g, and supernatant was discarded to obtain cell precipitation. • E) The cell precipitation was resuspended with 4 ml DMEM medium, counted and adjusted to 50,000 cells/ml. • F) Cell suspension was added to a 96-well plate with a volume of 100 μL per well and cultured overnight in a 5% CO2 incubator at 37° C.
(§3) • A) Preparing the tested compound gradient dilution solution: TY 2600 1 mM, TY 2601 1 mM, TY-2648a 1 mM, TY-2648b 1 mM and TY-2650 1 mM storage solutions were prepared. Then 1.5 μl of storage solution was dissolved in 1.5 ml of DMSO-free culture solution, and then performed 3-fold continuous gradient dilution with 0.1% DMSO culture solution for a total of 9 concentrations. The concentrations of the diluted compound were as follows: • 333.33 nM, 111.11 nM, 37.03 nM, 12.35 nM, 4.15 nM, 1.37 nM, 0.46 nM, 0.15 nM • B) After full mixing, 100 μL of culture compound solution was taken to replace the culture solution in the cell culture plate, with 4 duplicated wells at each concentration; • C) The cells were transferred to incubator to incubate for 3 days.
(§4) • A) The cell culture plate was taken out and added with 5 mg/ml MTT 10 μL in the biosafety cabinet; • B) The cell culture plate was put back into the incubator and continued to incubate for 3 hours; • C) The cell culture plate was taken out to remove the culture solution, 100 μL isopropanol (containing 0.4 mM HCl, 0.1% NP-40) was added, shaking at room temperature for 30 minutes; • D) The absorbance value was measured at 570 nm on TECAN enzyme linked immunosorbent assay.

[2] = test system: breast cancer cells MDA-MB453; assay: Cell anti-proliferation experiment, MTT (Table 4); assay type: cell-based, human; settings: incubate 3 days
From the text: as §1, §2, §3, §4

[3] = test system: breast cancer cells MDA-MB 231; assay: Cell anti-proliferation experiment, MTT (Table 4); assay type: cell-based, human; settings: incubate 3 days
From the text: as §1, §2, §3, §4

[4] = test system: colorectal cancer cells HCT-116; assay: Cell anti-proliferation experiment, MTT (Table 4); assay type: cell-based, human; settings: incubate 3 days
From the text: as §1, §2, §3, §4

[5] = target: CDK7/Cyclin H/MAT1 kinase (Homo sapiens (Human), UniProt P50613); assay: Enzyme activity test, mobility shift assay (Table 3); assay type: biochemical; settings: 2 mM ATP, pre-incubated 0 and 60 minutes
Protocol: IC50 values of the compounds for CDK7 kinase were detected in Wuxi Biortus Biosciences Co. Ltd.
The compound powder was dissolved in 100% DMSO to prepare a 10 mM storage solution. The storage solution was further diluted to 0.5 mM as the initial concentration, and continuously diluted 3 times to obtain 10 compound solutions with different concentrations. The compound and enzyme were pre-incubated for 0 minutes and 60 minutes, respectively, using duplicate detection.
was used as a positive control, using Mobility shift say method, to detect CDK kinase (such as CDK7, CDK9, CDK12 and CDK2) activity of the compound.

Chain of CDK7/Cyclin H/MAT1 kinase (P50613 whole entry): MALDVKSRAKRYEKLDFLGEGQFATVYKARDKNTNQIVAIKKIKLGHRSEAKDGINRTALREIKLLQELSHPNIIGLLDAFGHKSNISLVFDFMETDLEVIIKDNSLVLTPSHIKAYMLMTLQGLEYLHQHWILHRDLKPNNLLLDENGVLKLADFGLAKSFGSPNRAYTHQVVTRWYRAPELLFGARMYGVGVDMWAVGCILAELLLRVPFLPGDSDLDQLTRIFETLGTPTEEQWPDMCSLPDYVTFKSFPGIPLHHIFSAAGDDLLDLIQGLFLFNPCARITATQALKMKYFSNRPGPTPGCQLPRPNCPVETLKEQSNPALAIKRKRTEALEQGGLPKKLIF
Chain of CDK7/Cyclin H/MAT1 kinase (P51946 whole entry partner): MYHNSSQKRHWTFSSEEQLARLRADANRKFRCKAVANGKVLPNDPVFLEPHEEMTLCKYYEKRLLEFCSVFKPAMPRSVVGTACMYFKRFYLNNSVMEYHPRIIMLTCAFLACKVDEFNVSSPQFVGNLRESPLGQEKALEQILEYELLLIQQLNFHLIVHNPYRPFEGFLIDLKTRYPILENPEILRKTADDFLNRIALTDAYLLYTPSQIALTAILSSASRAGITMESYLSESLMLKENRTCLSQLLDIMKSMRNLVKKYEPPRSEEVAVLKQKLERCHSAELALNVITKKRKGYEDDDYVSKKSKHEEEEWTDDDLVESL
Chain of CDK7/Cyclin H/MAT1 kinase (P51948 whole entry partner): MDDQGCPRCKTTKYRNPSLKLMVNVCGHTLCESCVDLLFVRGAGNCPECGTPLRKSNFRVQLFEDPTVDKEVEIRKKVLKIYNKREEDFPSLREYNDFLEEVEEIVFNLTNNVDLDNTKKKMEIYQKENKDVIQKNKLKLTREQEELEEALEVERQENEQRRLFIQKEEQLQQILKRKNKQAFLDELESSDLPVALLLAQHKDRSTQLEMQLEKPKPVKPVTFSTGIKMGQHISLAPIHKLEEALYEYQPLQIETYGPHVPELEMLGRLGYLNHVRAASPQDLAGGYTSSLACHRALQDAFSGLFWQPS

SMILES	IC50 ([1]; Homo sapiens, OVCAR-3, 72 h) [nM]	IC50 ([2]; Homo sapiens, MDA-MB-453, 72 h) [nM]	IC50 ([3]; Homo sapiens, MDA-MB-231, 72 h) [nM]	IC50 ([4]; Homo sapiens, HCT-116, 72 h) [nM]	pIC50 [5]	IC50 [1] [nM]	IC50 [2] [nM]	IC50 [3] [nM]	IC50 [4] [nM]
CC1(C)CC[C@H](Nc2ncc(C(F)(F)F)c(-c3c[nH]c4c(P5(=O)CCCC5)nccc34)n2)CN1 [Example 14]	10 to 500	10 to 500	10 to 500	10 to 500	> 8.00	–	–	–	–
CC1(C)CC[C@H](Nc2ncc(C(F)(F)F)c(-n3cnc4c(P(C)(C)=O)c(C#N)ccc43)n2)CN1 [Example 31]	–	–	–	–	> 8.00	10 to 500	10 to 500	10 to 500	10 to 500
CP(C)(=O)c1c(C#N)ccc2c(-c3nc(N[C@H]4CCC(=O)NC4)ncc3C(F)(F)F)c[nH]c12 [Example 48]	10 to 500	10 to 500	10 to 500	10 to 500	> 8.00	–	–	–	–

Results, then the compound that gave them:

IC50 ([1]; Homo sapiens, OVCAR-3, 72 h) [nM]	IC50 ([2]; Homo sapiens, MDA-MB-453, 72 h) [nM]	IC50 ([3]; Homo sapiens, MDA-MB-231, 72 h) [nM]	IC50 ([4]; Homo sapiens, HCT-116, 72 h) [nM]	pIC50 [5]	IC50 [1] [nM]	IC50 [2] [nM]	IC50 [3] [nM]	IC50 [4] [nM]	SMILES
10 to 500	10 to 500	10 to 500	10 to 500	> 8.00	–	–	–	–	CC1(C)CC[C@H](Nc2ncc(C(F)(F)F)c(-c3c[nH]c4c(P5(=O)CCCC5)c(C#N)ccc34)n2)CN1 [Example 01]
10 to 500	10 to 500	10 to 500	10 to 500	> 8.00	–	–	–	–	COC(=O)Nc1ccc2c(-c3nc(N[C@H]4CCC(C)(C)NC4)ncc3C(F)(F)F)c[nH]c2c1P1(=O)CCCC1 [Example 20]
